# Patent publication US20260022142A1, “MACROCYCLIC IMMUNOMODULATORS” (Bristol-Myers Squibb Company, priority 2022, published 2026)
# Numbered stars: 1 amine (or outer) side, 2 acyl side, 3 side chain; on linkers, the order of the positions; unused ones are H or OH. Bridge positions count the residues as written; N and C are the ends. Square brackets hold non-standard residues; d marks the D form. Peptide text beside a SMILES is read from it. * marks the point of attachment. ξ: configuration not given here. Phe(4-COOH) = N[C@@H](Cc1ccc(C(=O)O)cc1)C(=O)O; Bip = N[C@@H](Cc1ccc(-c2ccccc2)cc1)C(=O)O; Tyr(3-Me) = Cc1cc(C[C@H](N)C(=O)O)ccc1O; NH(CH2)14COOH = O=C(O)CCCCCCCCCCCCCCN*; Phe(3-Me) = Cc1cccc(C[C@H](N)C(=O)O)c1; Phe(4-F) = N[C@@H](Cc1ccc(F)cc1)C(=O)O; γGlu = O=C(O)[C@H](CCC(=O)[*:2])N[*:1]; Val(3-OH) = CC(C)(O)[C@H](N)C(=O)O; hArg = N=C(N)NCCCC[C@H](N)C(=O)O; 4Pal = N[C@@H](Cc1ccncc1)C(=O)O; Abu(4-CN) = N#CCC[C@H](N)C(=O)O; Cha = N[C@@H](CC1CCCCC1)C(=O)O; Cit = NC(=O)NCCC[C@H](N)C(=O)O; Ile(3ξ) = CCC(C)[C@H](N)C(=O)O; Thr(3ξ) = CC(O)[C@H](N)C(=O)O; 12Ado = NCCCCCCCCCCCC(=O)O; hSer = N[C@@H](CCO)C(=O)O; Carboxymethyl = O=C(O)C*; Orn = NCCC[C@H](N)C(=O)O; Pra = C#CC[C@H](N)C(=O)O; Aun = NCCCCCCCCCCC(=O)O; Dab = NCC[C@H](N)C(=O)O; Dap = NC[C@H](N)C(=O)O; AEEA = NCCOCCOCC(=O)O; Ac3c = NC1(C(=O)O)CC1
# Biological target: T1, PD-1/PD-L1 interaction (PE-labeled human PD-L1-Ig binding to Jurkat cell line over-expressing human PD-1) (Homo sapiens, UniProt Q15116)
# T1 construct: expressed in transfected cells; host or cells: Jurkat
# Assay: Jurkat-PD-1 Cell Binding High-Content Screening Assay (CBA)
# Assay type: cell-based
# Conditions: Jurkat cell line over-expressing human PD-1; PE-labeled PD-L1-Ig 20 nM final; read-out: Jurkat hPD1-PDL1 IC50
# Procedure, shortened: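 Binding of fluorescent PD-L1-Ig (phycoerythrin on Ig tag, 20 nM final, 1 h) measured by high-content imaging of fixed, Hoechst-counterstained Jurkat-hPD-1 cells. Compound added 2 h at 37° C beforehand, in DMEM with 10% fetal calf serum.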
# T1 sequence (Q15116 25-288): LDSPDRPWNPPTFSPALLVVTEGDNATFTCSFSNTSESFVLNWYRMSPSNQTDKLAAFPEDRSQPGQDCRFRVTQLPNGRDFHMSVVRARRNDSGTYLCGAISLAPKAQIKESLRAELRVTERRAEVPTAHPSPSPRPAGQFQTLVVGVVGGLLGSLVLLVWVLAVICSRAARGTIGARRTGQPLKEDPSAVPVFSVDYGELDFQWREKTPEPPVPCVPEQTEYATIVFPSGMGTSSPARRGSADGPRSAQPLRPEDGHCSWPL
row,IC50 [nM],SMILES
1,7.5,CC(C)C[C@H]1NC(=O)[C@H](CCCN)NC(=O)[C@H](C(C)C)NC(=O)[C@H](Cc2ccc(-c3ccccc3)cc2)NC(=O)[C@H](C(C)C)NC(=O)[C@H](Cc2c[nH]c3ccccc23)NC(=O)[C@H](CC(=O)O)NC(=O)[C@H](Cc2ccc(OCC(=O)O)cc2)NC(=O)[C@H](CN)NC(=O)CSC[C@@H](C(=O)N[C@@H](CCN)C(=O)NCCOCCOCC(=O)N[C@@H](CCC(=O)NCCCCCCCCCCC(=O)O)C(=O)O)NC(=O)[C@H](CN)NC(=O)[C@H](C(C)O)NC(=O)[C@H](CC2CCCCC2)NC(=O)[C@H](CCN)NC1=O (stereo partly drawn) [Compound 3649] ({CH2CO}-[Dap]Y(Carboxymethyl)DWV[Bip]V[Orn][dL][Dab][Cha][Thr(3ξ)][Dap]C[Dab][AEEA][γGlu][Aun]-OH; thioether N-14)
2,47.6,Cc1cccc(C[C@@H]2NC(=O)[C@H](CC(=O)O)NC(=O)[C@H](Cc3ccc(OCC(=O)O)cc3)NC(=O)[C@H](CN)NC(=O)CSC[C@@H](C(=O)N[C@@H](CCN)C(=O)NCCOCCOCC(=O)NCCCCCCCCCCC(=O)O)NC(=O)[C@H](C(C)O)NC(=O)[C@H](Cc3ccc(O)cc3)NC(=O)[C@H](CC3CCCCC3)NC(=O)[C@H](CCN)NC(=O)[C@@H](CC(C)C)NC(=O)[C@H](CCCN)NC(=O)[C@H](C(C)C)NC(=O)[C@H](Cc3ccc(-c4ccccc4)cc3)NC(=O)[C@H](Cc3ccc(O)cc3)NC2=O)c1 (stereo partly drawn) [Compound 2573] ({CH2CO}-[Dap]Y(Carboxymethyl)D[Phe(3-Me)]Y[Bip]V[Orn][dL][Dab][Cha]Y[Thr(3ξ)]C[Dab][AEEA][Aun]-OH; thioether N-14)
3,18.4,Cc1cccc(C[C@@H]2NC(=O)[C@H](CC(=O)O)NC(=O)[C@H](Cc3ccc(OCC(=O)O)cc3)NC(=O)[C@H](C(C)O)NC(=O)CSC[C@@H](C(=O)N[C@@H](CCN)C(=O)NCCCCCCCCCCC(=O)O)NC(=O)[C@H](C(C)O)NC(=O)[C@H](C(C)C)NC(=O)[C@H](CC3CCCCC3)NC(=O)[C@H](CCN)NC(=O)[C@@H](CC(C)C)NC(=O)[C@H](CCCNC(=N)N)NC(=O)[C@H](CCCNC(N)=O)NC(=O)[C@H](Cc3ccc(-c4ccccc4)cc3)NC(=O)[C@H](C(C)C)NC2=O)c1 (stereo partly drawn) [Compound 3554] ({CH2CO}-[Thr(3ξ)]Y(Carboxymethyl)D[Phe(3-Me)]V[Bip][Cit]R[dL][Dab][Cha]V[Thr(3ξ)]C[Dab][Aun]-OH; thioether N-14)
4,12.1,Cc1cccc(C[C@@H]2NC(=O)[C@H](CC(=O)O)NC(=O)[C@H](Cc3ccc(OCC(=O)O)cc3)NC(=O)[C@H](Cc3ccc(F)cc3)NC(=O)CSC[C@@H](C(=O)N[C@@H](CCN)C(=O)NCCOCCOCC(=O)NCCCCCCCCCCC(=O)O)NC(=O)[C@H](CCC(=O)O)NC(=O)[C@H](C(C)C)NC(=O)[C@H](CC3CCCCC3)NC(=O)[C@H](CCN)NC(=O)[C@@H](CC(C)C)NC(=O)[C@H](CCCN)NC(=O)[C@H](Cc3ccc(OCC(=O)O)cc3)NC(=O)[C@H](Cc3ccc(-c4ccccc4)cc3)NC(=O)[C@H](Cc3ccc(OCC(=O)O)cc3)NC2=O)c1 [Compound 3800] ({CH2CO}-[Phe(4-F)]Y(Carboxymethyl)D[Phe(3-Me)]Y(Carboxymethyl)[Bip]Y(Carboxymethyl)[Orn][dL][Dab][Cha]VEC[Dab][AEEA][Aun]-OH; thioether N-14)
5,36.2,CC(C)C[C@H]1NC(=O)[C@H](CCCN)NC(=O)[C@H](Cc2ccc(O)cc2)NC(=O)[C@H](Cc2ccc(-c3ccccc3)cc2)NC(=O)[C@H](C(C)C)NC(=O)[C@H](Cc2c[nH]c3ccccc23)NC(=O)[C@H](CC(=O)O)NC(=O)[C@H](Cc2ccc(OCC(=O)O)cc2)NC(=O)[C@H](CCCNC(=N)N)NC(=O)CSC[C@@H](C(=O)N[C@@H](CCN)C(=O)NCCCCCCCCCCC(=O)O)NC(=O)[C@H](CCC#N)NC(=O)[C@H](C(C)C)NC(=O)[C@H](CC2CCCCC2)NC(=O)[C@H](CCN)NC1=O [Compound 3418] ({CH2CO}-RY(Carboxymethyl)DWV[Bip]Y[Orn][dL][Dab][Cha]V[Abu(4-CN)]C[Dab][Aun]-OH; thioether N-14)
6,35.2,C#CC[C@H](NC(=O)COCCOCCNC(=O)[C@H](CCCNC(=N)N)NC(=O)[C@@H]1CSCC(=O)N[C@@H](Cc2ccncc2)C(=O)N[C@@H](Cc2ccc(OCC(=O)O)cc2)C(=O)N[C@@H](CC(=O)O)C(=O)N[C@@H](Cc2c[nH]c3ccccc23)C(=O)N[C@@H](C(C)C)C(=O)N[C@@H](Cc2ccc(-c3ccccc3)cc2)C(=O)N[C@@H]([C@@H](C)CC)C(=O)N[C@@H](CCCN)C(=O)N[C@H](CC(C)C)C(=O)N[C@@H](CCN)C(=O)N[C@@H](CC(C)C)C(=O)N[C@@H](C(C)C)C(=O)N[C@@H]([C@@H](C)O)C(=O)N1)C(=O)NCCCCCCCCCCC(=O)O [Compound 1209] ({CH2CO}-[4Pal]Y(Carboxymethyl)DWV[Bip]I[Orn][dL][Dab]LVTCR[AEEA][Pra][Aun]-OH; thioether N-14)
7,15.3,Cc1cccc(C[C@@H]2NC(=O)[C@H](CC(=O)O)NC(=O)[C@H](Cc3ccc(OCC(=O)O)cc3)NC(=O)[C@H](CN)NC(=O)CSC[C@@H](C(=O)NC3(C(=O)NCCCCCCCCCCC(=O)O)CC3)NC(=O)[C@H]([C@@H](C)O)NC(=O)[C@H](C(C)C)NC(=O)[C@H](CC3CCCCC3)NC(=O)[C@H](CCN)NC(=O)[C@@H](CC(C)C)NC(=O)[C@H](CCCN)NC(=O)[C@H](CCCNC(N)=O)NC(=O)[C@H](Cc3ccc(-c4ccccc4)cc3)NC(=O)[C@H](C(C)C)NC2=O)c1 [Compound 2010] ({CH2CO}-[Dap]Y(Carboxymethyl)D[Phe(3-Me)]V[Bip][Cit][Orn][dL][Dab][Cha]VTC[Ac3c][Aun]-OH; thioether N-14)
8,11.3,CCC(C)[C@@H]1NC(=O)[C@H](Cc2ccc(-c3ccccc3)cc2)NC(=O)[C@H](C(C)C)NC(=O)[C@H](Cc2c[nH]c3ccccc23)NC(=O)[C@H](CC(=O)O)NC(=O)[C@H](Cc2ccc(OCC(=O)O)cc2)NC(=O)[C@H](CCCCNC(=N)N)NC(=O)CSC[C@@H](C(=O)NCCOCCOCC(=O)N[C@@H](CCCCN)C(=O)NCCCCCCCCCCC(=O)O)NC(=O)[C@H](CO)NC(=O)[C@H](C(C)C)NC(=O)[C@H](CC2CCCCC2)NC(=O)[C@H](CCN)NC(=O)[C@@H](CC(C)C)NC(=O)[C@H](CCCN)NC1=O (stereo partly drawn) [Compound 3082] ({CH2CO}-[hArg]Y(Carboxymethyl)DWV[Bip][Ile(3ξ)][Orn][dL][Dab][Cha]VSC[AEEA]K[Aun]-OH; thioether N-14)
9,84.9,CC(C)C[C@H]1NC(=O)[C@H](CCCN)NC(=O)[C@H](C(C)C)NC(=O)[C@H](Cc2ccc(-c3ccccc3)cc2)NC(=O)[C@H](C(C)C)NC(=O)[C@H](Cc2c[nH]c3ccccc23)NC(=O)[C@H](CC(=O)O)NC(=O)[C@H](Cc2ccc(OCC(=O)O)cc2)NC(=O)[C@H](CN)NC(=O)CSC[C@@H](C(=O)N[C@@H](CC(=O)O)C(=O)NCCCCCCCCCCC(=O)O)NC(=O)[C@H]([C@@H](C)O)NC(=O)[C@H](C(C)C)NC(=O)[C@H](CC2CCCCC2)NC(=O)[C@H](Cc2c[nH]cn2)NC1=O [Compound 1078] ({CH2CO}-[Dap]Y(Carboxymethyl)DWV[Bip]V[Orn][dL]H[Cha]VTCD[Aun]-OH; thioether N-14)
10,56.3,Cc1cccc(C[C@@H]2NC(=O)[C@H](CC(=O)O)NC(=O)[C@H](Cc3ccc(C(=O)O)cc3)NC(=O)[C@H](CCCN)NC(=O)CSC[C@@H](C(=O)N[C@@H](CCN)C(=O)NCCOCCOCC(=O)NCCOCCOCC(=O)N[C@@H](CCC(=O)O)C(=O)N[C@@H](CC(=O)NCCCCCCCCCCCCCCC(=O)O)C(=O)O)NC(=O)[C@H](Cc3cnc[nH]3)NC(=O)[C@H](C(C)(C)O)NC(=O)[C@H](CC3CCCCC3)NC(=O)[C@H](CCN)NC(=O)[C@@H](CC(C)C)NC(=O)[C@H](CCCN)NC(=O)[C@H](Cc3ccc(C(=O)O)cc3)NC(=O)[C@H](Cc3ccc(-c4ccccc4)cc3)NC(=O)[C@H](Cc3ccc(C(=O)O)cc3)NC2=O)c1 [Compound 3887] ({CH2CO}-[Orn][Phe(4-COOH)]D[Phe(3-Me)][Phe(4-COOH)][Bip][Phe(4-COOH)][Orn][dL][Dab][Cha][Val(3-OH)]HC[Dab][AEEA][AEEA]ED(NH(CH2)14COOH)-OH; thioether N-14)
11,36.5,Cc1cc(C[C@@H]2NC(=O)[C@H](CC(=O)O)NC(=O)[C@H](Cc3ccc(OCC(=O)O)cc3)NC(=O)[C@H](CN)NC(=O)CSC[C@@H](C(=O)N[C@@H](CCN)C(=O)NCCCCCCCCCCC(=O)O)NC(=O)[C@H](CCO)NC(=O)[C@H](C(C)C)NC(=O)[C@H](CC3CCCCC3)NC(=O)[C@H](CCN)NC(=O)[C@@H](CC(C)C)NC(=O)[C@H](CCCN)NC(=O)[C@H](Cc3ccc(OCC(=O)O)cc3)NC(=O)[C@H](Cc3ccc(-c4ccccc4)cc3)NC(=O)[C@H](C(C)C)NC2=O)ccc1O [Compound 2096] ({CH2CO}-[Dap]Y(Carboxymethyl)D[Tyr(3-Me)]V[Bip]Y(Carboxymethyl)[Orn][dL][Dab][Cha]V[hSer]C[Dab][Aun]-OH; thioether N-14)
12,30.8,Cc1cccc(C[C@@H]2NC(=O)[C@H](CC(=O)O)NC(=O)[C@H](Cc3ccc(OCC(=O)O)cc3)NC(=O)[C@H](CN)NC(=O)CSC[C@@H](C(=O)N[C@@H](CC(=O)O)C(=O)NCCOCCOCC(=O)NCCCCCCCCCCC(=O)O)NC(=O)[C@@H](CO)NC(=O)[C@H](C(C)C)NC(=O)[C@H](CC3CCCCC3)NC(=O)[C@H](CCN)NC(=O)[C@@H](CC(C)C)NC(=O)[C@H](CCCN)NC(=O)[C@H](CCCNC(N)=O)NC(=O)[C@H](Cc3ccc(-c4ccccc4)cc3)NC(=O)[C@H](C(C)C)NC2=O)c1 [Compound 2021] ({CH2CO}-[Dap]Y(Carboxymethyl)D[Phe(3-Me)]V[Bip][Cit][Orn][dL][Dab][Cha]V[dS]CD[AEEA][Aun]-OH; thioether N-14)
13,37,Cc1cccc(C[C@@H]2NC(=O)[C@H](CC(=O)O)NC(=O)[C@H](Cc3ccc(OCC(=O)O)cc3)NC(=O)[C@H](CCCNC(=N)N)NC(=O)CSC[C@@H](C(=O)N[C@@H](CCCCN)C(=O)N[C@@H](CO)C(=O)NCCCCCCCCCCCC(=O)O)NC(=O)[C@H](C(C)O)NC(=O)[C@H](C(C)C)NC(=O)[C@H](CC3CCCCC3)NC(=O)[C@H](CCN)NC(=O)[C@@H](CC(C)C)NC(=O)[C@H](CCCN)NC(=O)[C@H](CCCNC(N)=O)NC(=O)[C@H](Cc3ccc(-c4ccccc4)cc3)NC(=O)[C@H](C(C)C)NC2=O)c1 (stereo partly drawn) [Compound 3549] ({CH2CO}-RY(Carboxymethyl)D[Phe(3-Me)]V[Bip][Cit][Orn][dL][Dab][Cha]V[Thr(3ξ)]CKS[12Ado]-OH; thioether N-14)
